Test results: patent US5807729A, “Metalloprotease having increased activity” (Novo Nordisk A/S, priority 1995, dated 1998)
Where two headings read alike, the source gives them in different places. Square brackets hold non-standard residues; d marks the D form. Peptide text beside a SMILES is read from it. pGlu = O=C1CC[C@@H](C(=O)O)N1

Tests used:
bacterial thermolysins = conditions: 1M NaCl
Description: FTC-casein (20 microliters, 0.5% w/w in 50 mM Tris-Cl, pH 7.2), NaCl (0-2M) in trypsin-like F. oxysporum protease sample buffer, and either trypsin-like F. oxysporum protease (10 microliters, 1.8 ug) or p45 metalloprotease (10 microliters, 0.33 ug) are added to trypsin-like F. oxysporum protease sample buffer to a total volume of 50 microliters. Samples are incubated at room temperature for 30 minutes. At the end of the incubation, 150 microliters of 5% (w/v) trichloroacetic acid is added and the samples are allowed to precipitate for 60 minutes at 4° C. Samples are subsequently centrifuged (14,000 rpm, 5 minutes) and 30 microliters of supernatant are added to 3 ml of 0.5M sodium borate, pH 9.
The fluorescence of the samples is measured (Perkin-Elmer fluorimeter) using a 2.5 nm slit width, excitation at 490 nm and emission detected at 525 nm.

p45 Metalloprotease [1] = target: T1, p45 Metalloprotease (Fusarium oxysporum, UniProt M1UZ70); conditions: 1M NaCl; FIG. 11
[2] = target: trypsin-like F. oxysporum protease (Fusarium oxysporum, UniProt P35049); conditions: 2M NaCl; FIG. 11
[3] = target: Bacillus stearothermophilus thermolysin; experiment: Inhibitor analysis of B.s. thermolysin; format: biochemical; conditions: for Ki: read-out: Inhibition Constant (Ki), B.s. Thermolysin
Description: (§1) Other metalloprotease inhibitors are utilized to further differentiate the p45 metalloprotease from the Bacillus thermolysins. Inhibition constants for 1,10-phenanthroline, phosphoramidon, and CdCl2 are determined to be 130 uM, 1 uM, and 67 uM against the p45 Metalloprotease (Table 3). Inhibition constants for 1,10-phenanthroline, phosphoramidon, and CdCl2 are 85 uM, 26 uM, and 2 uM against the Bacillus stearothermophilus thermolysin. […] It is of interest to note that phophoramidon is an effective inhibitor of many bacterial metallo-endopeptidases but few of mammalian origin. Also, it is interesting that CdCl2 is found to be such an effective inhibitor of metalloproteases. No evidence of CdCl2 inhibition of metalloproteases has been found in the literature.

p45 Metalloprotease [4] = target: T1, p45 Metalloprotease; experiment: Effect of the pentapeptide on processing of pro-trypsin-like protease by p45; format: biochemical; set-up: precursor 632 aa (18 signal, 226 pro); native or A. oryzae-expressed with same N-terminus; conditions: 45-minute pre-incubation at room temperature
Description: After a 45-minute pre-incubation at room temperature with gentle shaking, the mixtures are diluted 500-fold and assayed for trypsin-like F. oxysporum protease activity.

p45 Metalloprotease [5] = target: T1, p45 Metalloprotease; experiment: Inhibitor analysis of the p45 metalloprotease; format: biochemical; set-up: precursor 632 aa (18 signal, 226 pro); native or A. oryzae-expressed with same N-terminus
Description: as §1

[6] = target: T2, trypsin-like Fusarium oxysporum protease (Fusarium oxysporum, UniProt P35049); experiment: Effect of 1,10-phenanthroline on tryptic activity (L-BAPNA); format: biochemical; conditions: 1,10-phenanthroline 1 mM
T2 construct: the metalloprotease cleaves recombinant pro-trypsin-like Fusarium oxysporum protease disclosed, supra to yield the active tryptic protease; made in house; host or cells: Aspergillus oryzae (IFO 4177), plasmid pSX183
Description: (§2) Metalloprotease activity is measured as released trypsin activity from pro-trypsin-like Fusarium oxysporum protease deposited at the Deutsche Sammlung von Mikroorganismen, Gottingen, Germany under the number DSM 2672, after a 30-60 min pre-incubation at 25° C. in 0.1M Tris, 2 mM CaCl2, pH 7 (at lower pH, 100 mM borate, 10 mM DMG, 2 mM CaCl2 is used).
(§3) However, when combined the metalloprotease cleaves recombinant pro-trypsin-like Fusarium oxysporum protease disclosed, supra to yield the active tryptic protease. Metalloprotease activity is halted upon the addition of 1 mM 1,10-phenanthroline (Table 1).

[7] = tested on: Fusarium oxysporum metalloprotease; experiment: Inhibition of Fusarium metalloprotease with 1,10-phenanthroline / EDTA and reactivation with Zn2+; format: biochemical; conditions: inhibitor 1 mM
Description: as §2
(§4) Metalloproteases contain a catalytic zinc metal center which participates in the hydrolysis of the peptide backbone. The active zinc center differentiates these proteases from calpains whose activities are dependent upon the presence of calcium. Confirmation of a protease as a metallo-protease is loss of proteolytic activity accomplished by removal of the zinc center with 1,10-phenanthroline (1 mM) followed by titration with Zn^2+ (0.1-100 μM) to restore full activity.
as §3

[8] = target: neutral metalloprotease from Bacillus stearothermophilus (Bacillus stearothermophilus); experiment: enzyme inhibition, kinetic analysis of B.s. thermolysin activity
p45 Metalloprotease [9] = target: T1, p45 Metalloprotease; experiment: Influence of heavy metal additions on p45 metalloprotease activity (FTC-casein); format: biochemical; set-up: precursor 632 aa (18 signal, 226 pro); native or A. oryzae-expressed with same N-terminus; conditions: CoCl2 0-4 mM, p45 0.9 ug
Description: Samples are incubated at room temperature for 30 minutes.
It is interesting that substoichiometric levels of Zn are found after metal analysis (ICP) of the p45 metalloprotease. It appears that zinc levels are only 5% of that expected based on the level of p45 metalloprotease in the sample. No other heavy metal (i.e. Cd, Cr, Co, Cu, Mo, Ni, Li, […], Fe, Mn, As, Pb, or Se) is present in the p45 maturase sample.

[10] = target: T3, p45 metalloprotease from Fusarium oxysporum (Fusarium oxysporum); experiment: enzyme inhibition, kinetic analysis of p45 activity
T3 chain: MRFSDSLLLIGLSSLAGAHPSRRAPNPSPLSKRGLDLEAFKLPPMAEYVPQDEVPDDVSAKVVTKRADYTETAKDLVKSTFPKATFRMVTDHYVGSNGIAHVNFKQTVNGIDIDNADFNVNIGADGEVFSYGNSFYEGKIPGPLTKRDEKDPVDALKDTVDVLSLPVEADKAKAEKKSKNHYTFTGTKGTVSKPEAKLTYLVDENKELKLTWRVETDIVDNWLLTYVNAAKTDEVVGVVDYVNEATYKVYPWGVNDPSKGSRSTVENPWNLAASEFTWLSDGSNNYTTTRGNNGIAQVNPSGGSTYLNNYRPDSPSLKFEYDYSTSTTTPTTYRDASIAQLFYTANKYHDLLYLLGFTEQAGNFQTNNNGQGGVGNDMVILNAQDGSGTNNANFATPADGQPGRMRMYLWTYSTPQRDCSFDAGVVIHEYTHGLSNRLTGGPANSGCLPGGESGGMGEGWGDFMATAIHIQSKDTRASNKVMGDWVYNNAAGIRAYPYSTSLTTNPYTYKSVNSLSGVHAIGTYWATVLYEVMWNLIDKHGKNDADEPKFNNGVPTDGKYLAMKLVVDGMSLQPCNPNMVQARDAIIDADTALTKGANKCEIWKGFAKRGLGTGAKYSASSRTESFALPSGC

FTC-labeled casein [11] = conditions: scale: fold
[12] = tested on: pro-trypsin-like Fusarium oxysporum protease; experiment: Proteolytic enzyme assay: tryptic activity released from pro-trypsin-like protease, L-BAPNA, 405 nm; format: biochemical
Description: as §2, §4, §3

FTC-labeled casein [13] = experiment: pH profile, FTC-casein hydrolysis; format: biochemical
Description: Purified p45 metalloprotease (10 microliters, 0.005 mg/ml) is added to 30 microliters of Universal pH buffer (pH 5-11.5), and 20 microliters of FTC-labeled casein are incubated at 37° C. for 1-hour. 150 microliters of 5% TCA is added to acidify and precipitate casein (1-hour at room temperature). […] Samples are then analyzed on the fluorimeter (slit width=2.5 nm; excitation freq.=490 nm; emission freq.=525 nm; integration time=2 sec).

[Cl-].[Na+] [NaCl]
inhibition of bacterial thermolysins (bacterial thermolysins): 38% | inhibition of p45 metalloprotease activity (p45 Metalloprotease [1]): 85% | inhibition of trypsin-like F. oxysporum protease activity [2]: 25%

CC[C@H](C)[C@H](NC(=O)[C@H](CCC(=O)O)NC(=O)[C@@H]1CCC(=O)N1)C(=O)N1CCC[C@H]1C(=O)N[C@@H](CC(N)=O)C(=O)O [<E-E-I-P-N, pyroGlu-Glu-Ile-Pro-Asn-COOH] ([pGlu]EIPN-OH)
Ki ([3]; no effect): > 5000 µM | effect of the pentapeptide on p45 metalloprotease activity (p45 Metalloprotease [4]): not an inhibitor of p45 metalloprotease activity | Ki (p45 Metalloprotease [5]): > 5000 µM

c1cnc2c(c1)ccc1cccnc12 [1,10-phenanthroline]
inhibition of trypsin-like protease [6]: not inhibited | type of inhibition, B.s. Thermolysin ([3]; kinetic analysis): Noncompetitive | Ki [3]: 85 µM | Ki (p45 Metalloprotease [5]): 130 µM | type of inhibition, p45 Maturase (p45 Metalloprotease [5]; kinetic analysis): Noncompetitive | metalloprotease activity upon addition of the inhibitor [7]: halted

synthetic pentapeptide pyroGlu-Glu-Ile-Pro-Asn-COOH
Ki [8]: > 5000 µM

[Cl-].[Cl-].[Co+2] [CoCl2]
enhancement of p45 metalloprotease activity (p45 Metalloprotease [9]): no enhanced activity

B1: synthetic pentapeptide pyroGlu-Glu-Ile-Pro-Asn-COOH (peptide)
peptide: [pGlu]EIPN-OH
SMILES: CC[C@H](C)[C@H](NC(=O)[C@H](CCC(=O)O)NC(=O)[C@@H]1CCC(=O)N1)C(=O)N1CCC[C@H]1C(=O)N[C@@H](CC(N)=O)C(=O)O
Ki [10]: > 5000 µM

B2: trypsin-like Fusarium oxysporum protease (enzyme)
chain: IVGGTSASAGDFPFIVSISRNGGPWCGGSLLNANTVLTAAHCVSGYAQSGFQIRAGSLSRTSGGITSSLSSVRVHPSYSGNNNDLAILKLSTSIPSGGNIGYARLAASGSDPVAGSSATVAGWGATSEGGSSTPVNLLKVTVPIVSRATCRAQYGTSAITNQMFCAGVSSGGKDSCQGDSGGPIVDSSNTLIGAVSWGNGCARPNYSGVYASVGALRSFIDTYA
hydrolysis of FTC-casein at pH 9 (FTC-labeled casein [11]): 16 | Tryptic Activity ([12]; with 1,10-phenanthroline (1 mM), without Zn2+): 33.8 Δ Abs/min × 10^-4 | Tryptic Activity ([12]; with inhibitor (1,10-phenanthroline) addition): 33.8×10^-4 ΔAbs/min | Tryptic Activity ([12]; without 1,10-phenanthroline, without Zn2+): 34.0 Δ Abs/min × 10^-4 | Tryptic Activity ([12]; without inhibitor addition): 34.0×10^-4 ΔAbs/min | pH at which the protease functions optimally (FTC-labeled casein [13]): ~9.5
